Assay results from patent US8143270B2, “2-amino 1H-in-imidazo ring systems and methods” (3M Innovative Properties Company, priority 2004, dated 2012).
Counter-ions that a name gives are not always drawn.

Tested on: mouse macrophage cell line Raw 264.7
Assay: TNF-α inhibition in mouse cells
Type: cell-based
Conditions: Raw 264.7 cells stimulated by lipopolysaccharide (LPS); single concentration 5 μM or dose response 0.03-10 μM; TNF-α by ELISA
Procedure: The compounds of Formulas I, II, III, IV, V, VI, VII, and VIII are useful as immune response modifiers (IRMs) due to their ability to modulate cytokine biosynthesis (e.g., induce or inhibit the biosynthesis or production of one or more cytokines) and otherwise modulate the immune response when administered to animals. Compounds can be tested per the test procedures described in the Examples Section. Compounds can be tested for induction of cytokine biosynthesis by incubating human peripheral blood mononuclear cells (PBMC) in a culture with the compound(s) at a concentration range of 30 to 0.014 μM and analyzing for interferon (α) or tumor necrosis factor (α) in the culture supernatant. Compounds can be tested for inhibition of cytokine biosynthesis by incubating mouse macrophage cell line Raw 264.7 in a culture with the compound(s) at a single concentration of, for example, 5 μM and analyzing for tumor necrosis factor (α) in the culture supernatant. The ability to modulate cytokine biosynthesis, for example, induce the biosynthesis of one or more cytokines, makes the compounds useful in the treatment of a variety of conditions such as viral diseases and neoplastic diseases, that are responsive to such changes in the immune response. […]
(§1) Raw cells (ATCC) are harvested by gentle scraping and then counted. […]
The compounds are solubilized in dimethyl sulfoxide (DMSO). […] LPS (Lipopolysaccaride from Salmonella typhimurium, Sigma-Aldrich) is diluted with colorless RPMI to the EC70 concentration as measured by a dose response assay. […]
Following the incubation the supernatant is removed with a pipet. TNF-α concentration is determined by ELISA using a mouse TNF-α kit (from Biosource International, Camarillo, Calif.). […]
as §1
The compounds are solubilized in dimethyl sulfoxide (DMSO). […] LPS (Lipopolysaccaride from Salmonella typhimurium, Sigma-Aldrich) is diluted with colorless RPMI to the EC70 concentration as measured by dose response assay. […]

SMILES	inhibition of production of tumor necrosis factor α (TNF-α)
CCNc1nc2c(N)nc3ccccc3c2n1CC(C)(C)O [Example 7, 1-[4-Amino-2-(ethylamino)-1H-imidazo[4,5-c]quinolin-1-yl]-2-methylpropan-2-ol]	inhibiting production of tumor necrosis factor α (TNF-α)
COCCCNc1nc2c(N)nc3ccccc3c2n1CC(C)(C)O [Example 9, 1-{4-Amino-2-[(3-methoxypropyl)amino]-1H-imidazo[4,5-c]quinolin-1-yl}-2-methylpropan-2-ol]	inhibiting production of tumor necrosis factor α (TNF-α)
COCCNc1nc2c(N)nc3ccccc3c2n1CC(C)(C)O [Example 8, 1-{4-Amino-2-[(2-methoxyethyl)amino]-1H-imidazo[4,5-c]quinolin-1-yl}-2-methylpropan-2-ol]	inhibiting production of tumor necrosis factor α (TNF-α)

Tested on: not given
Assay: not given
Conditions: not given

melting point	SMILES
> 230 °C	CC(C)(O)Cn1c(N)nc2c(N)nc3ccccc3c21 (as salt: hydrobromid) [Example 2, 1-(2,4-Diamino-1H-imidazo[4,5-c]quinolin-1-yl)-2-methylpropan-2-ol hydrobromide]
168 to 170 °C	CCNc1nc2c(N)nc(C)c(C)c2n1CC(C)C [Example 16, N^2-Ethyl-6,7-dimethyl-1-(2-methylpropyl)-1H-imidazo[4,5-c]pyridine-2,4-diamine]
254 to 256 °C	Nc1nc2ccccc2c2c1nc(N)n2Cc1ccccc1 [Example 4, 1-Benzyl-1H-imidazo[4,5-c]quinoline-2,4-diamine]
> 270 °C	CC(C)(O)Cn1c(N)nc2c(N)nc3c(c21)CCCC3 [Example 18, 1-(2,4-Diamino-6,7,8,9-tetrahydro-1H-imidazo[4,5-c]quinolin-1-yl)-2-methylpropan-2-ol]
233 to 235 °C	CCNc1nc2c(N)nc3ccccc3c2n1CC(C)(C)O [Example 7, 1-[4-Amino-2-(ethylamino)-1H-imidazo[4,5-c]quinolin-1-yl]-2-methylpropan-2-ol]
255 to 258 °C (dec.)	COC(=O)Nc1nc2c(N)nc3ccccc3c2n1CC(C)(C)O [Example 181, Methyl [4-amino-1-(2-hydroxy-2-methylpropyl)-1H-imidazo[4,5-c]quinolin-2-yl]carbamate]
209 to 210 °C	COCCCNc1nc2c(N)nc3ccccc3c2n1CC(C)(C)O [Example 9, 1-{4-Amino-2-[(3-methoxypropyl)amino]-1H-imidazo[4,5-c]quinolin-1-yl}-2-methylpropan-2-ol]
295 °C (dec.)	Nc1nc2ccccc2c2c1nc(N)n2CC1(O)CCC1 [Example 46, 1-[(2,4-Diamino-1H-imidazo[4,5-c]quinolin-1-yl)methyl]cyclobutanol]
135 to 140 °C	C[C@@H](c1ccccc1)n1c(N)nc2c(N)nc3ccccc3c21 [Example 45, 1-[(1S)-1-Phenylethyl]-1H-imidazo[4,5-c]quinoline-2,4-diamine]
188 to 190 °C	CCNc1nc2c(N)nc3ccccc3c2n1CC(C)C [Example 6, N^2-Ethyl-1-(2-methylpropyl)-1H-imidazo[4,5-c]quinoline-2,4-diamine]
156 to 160 °C	C[C@H](c1ccccc1)n1c(N)nc2c(N)nc3ccccc3c21 [Example 44, 1-[(1R)-1-Phenylethyl]-1H-imidazo[4,5-c]quinoline-2,4-diamine]
> 250 °C	CC(C)Cn1c(N)nc2c(N)nc3ccccc3c21 [Example 1, 1-(2-Methylpropyl)-1H-imidazo[4,5-c]quinoline-2,4-diamine]
176 to 178 °C	COCCNc1nc2c(N)nc3ccccc3c2n1CC(C)(C)O [Example 8, 1-{4-Amino-2-[(2-methoxyethyl)amino]-1H-imidazo[4,5-c]quinolin-1-yl}-2-methylpropan-2-ol]
251 °C	CC(C)(F)Cn1c(N)nc2c(N)nc3ccccc3c21 [Example 43, 1-(2-Fluoro-2-methylpropyl)-1H-imidazo[4,5-c]quinoline-2,4-diamine]
> 230 °C	CC(C)(Cn1c(N)nc2c(N)nc3ccccc3c21)NS(C)(=O)=O [Example 3, N-[2-(2,4-Diamino-1H-imidazo[4,5-c]quinolin-1-yl)-1,1-dimethylethyl]methanesulfonamide]
